Measured values taken from US11090319B2, “Therapeutic uses of pharmaceutical compositions comprising cyclic boronic acid ester derivatives” (Melinta Subsidiary Corp., priority 2010, dated 2021).
Where two headings read alike, the source gives them in different places.

Legend:
[1] = system: SM1000 Serratia marcescens SME-2; experiment: Checkerboard assay, biapenem potentiation; conditions: Biapenem MIC 8-fold; SM1000 SME-2 class A
[2] = system: EC1007 Escherichia coli KPC-3; experiment: Checkerboard assay, biapenem potentiation; conditions: Biapenem MIC 8-fold; EC1007 KPC-3 class A
[3] = system: ECL1004 Enterobacter cloacae NMC-A; experiment: Checkerboard assay, biapenem potentiation; conditions: Biapenem MIC 8-fold; ECL1004 NMC-A class A
[4] = target: various β-lactamases (bacterial lysates) (Salmonella typhimurium, UniProt P0A1V8); experiment: biochemical; format: biochemical; conditions: AZT IC50 KPX1001 OXA-2
[5] = target: various β-lactamases (bacterial lysates) (Escherichia coli, UniProt A0A5R8T042); experiment: biochemical; format: biochemical; conditions: read-out: AZT IC50 KP1009 CTX-M-15
Chain of various β-lactamases (bacterial lysates) (Escherichia coli, UniProt A0A5R8T042) (A0A5R8T042 29-291): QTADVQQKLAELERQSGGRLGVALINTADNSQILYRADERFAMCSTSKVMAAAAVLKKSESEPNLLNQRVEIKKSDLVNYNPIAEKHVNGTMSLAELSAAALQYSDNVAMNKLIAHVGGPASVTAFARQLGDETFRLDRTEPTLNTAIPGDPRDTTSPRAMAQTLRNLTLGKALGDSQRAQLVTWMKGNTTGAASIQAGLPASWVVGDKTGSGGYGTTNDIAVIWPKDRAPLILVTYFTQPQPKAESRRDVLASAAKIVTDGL

[6] = target: various β-lactamases (bacterial lysates) (Klebsiella pneumoniae, UniProt Q9F663); experiment: biochemical; format: biochemical
[7] = target: various β-lactamases (bacterial lysates) (Klebsiella pneumoniae, UniProt Q9F663, H272Y); experiment: biochemical; format: biochemical
[8] = target: various β-lactamases (bacterial lysates) (Escherichia coli, UniProt A0A649V088); experiment: biochemical; format: biochemical; conditions: read-out: AZT IC50 KP1005 CTX-M-14
[9] = target: various β-lactamases (bacterial lysates) (Pseudomonas aeruginosa, UniProt P14489); experiment: biochemical; format: biochemical; conditions: AZT IC50 KP1007 OXA-10
[10] = target: various β-lactamases (bacterial lysates) (Escherichia coli, UniProt Q53TY8); experiment: Inhibition of nitrocefin cleavage by bacterial lysates, Table 11; format: biochemical; conditions: lysate EC1010 pAmpC (CMY-6), read-out: NCF IC50 EC1010 pAmpC (CMY-6)
[11] = system: strains expressing class A ESBLs; format: cell-based
Protocol: Selected β-lactamase inhibitors were also tested for their ability to potentiate the monobactam tigemonam.

OXA-10, lysate of KP1007 = OXA-10, lysate of KP1007 (Pseudomonas aeruginosa, UniProt P14489); experiment: Inhibition of ceftazidime hydrolysis by bacterial lysate
SHV-2, lysate of ec306 = SHV-2, lysate of ec306 (Escherichia coli, UniProt P0A9Z7); experiment: as above
SME-2, lysate of SM1000 = SME-2, lysate of SM1000 (Serratia marcescens, UniProt P52682); experiment: Inhibition of biapenem hydrolysis by bacterial lysate; conditions: read-out: IC50 of inhibition of biapenem hydrolysis; SM1000 SME-2
[12] = target: CTX-M-15, lysate of KP1009 (Escherichia coli, UniProt Q9EXV5); experiment: Inhibition of ceftazidime hydrolysis by bacterial lysate
Chain of CTX-M-15, lysate of KP1009 (Q9EXV5 entry or part of it): as the sequence (A0A5R8T042 29-291) above

GES-1, lysate of pa 1063 = GES-1, lysate of pa 1063 (Klebsiella pneumoniae, UniProt Q9KJY7); experiment: as above
SHV-5, lysate of ec308 = SHV-5, lysate of ec308 (Escherichia coli, UniProt P0AD63, E235K/G234S); experiment: as above
[13] = lysate KP1004 KPC-2, aztreonam cleavage, read-out: AZT IC50 KP1004 KPC-2 (converted)
[14] = lysate KP1008 KPC-2, aztreonam cleavage, read-out: AZT IC50 KP1008 KPC-2

SMILES | IC50 [4] [nM] | IC50 [5] [nM] | IC50 [6, 13] [nM] | IC50 [6, 14] [nM] | IC50 [7] [nM] | IC50 [8] [nM] | IC50 [9] [nM] | IC50 [10] [nM] | also measured
O=C(O)CC1CC[C@H](NC(=O)Cc2ccccc2)B(O)O1 (stereo partly drawn) [Compound 2, 2-((3R)-2-hydroxy-3-(2-phenylacetamido)-1,2-oxaborinan-6-yl)acetic acid] |  |  |  |  |  |  |  |  | MPC8 [1]: Y (MPC8 of 0.16 μg/mL to 1 μg/mL); MPC8 [2]: X (MPC8 of less than 0.16 μg/mL); MPC8 [3]: Y (MPC8 of 0.16 μg/mL to 1 μg/mL)
CC(C)(O/N=C(\C(=O)N[C@H]1CC[C@@H](CC(=O)O)OB1O)c1csc(N)n1)C(=O)O [Compound 36, 2-((Z)-1-(2-aminothiazol-4-yl)-2-((3R,6S)-6-(carboxymethyl)-2-hydroxy-1,2-oxaborinan-3-ylamino)-2-oxoethylideneaminooxy)-2-methylpropanoic acid] | > 4670 | < 1170 | 1170 to 4670 | 1170 to 4670 | < 1170 | < 1170 | > 4670 | > 4670 | 
Nc1nc(CC(=O)N[C@H]2CC[C@@H](CC(=O)O)OB2O)cs1 [Compound 39, 2-((3R,6S)-3-(2-(2-aminothiazol-4-yl)acetamido)-2-hydroxy-1,2-oxaborinan-6-yl)acetic acid] | 1600 to 6390 | 1600 to 6390 | < 1600 | 1600 to 6390 | < 1600 | 1600 to 6390 | > 6390 | > 6390 | 
CO/N=C(\C(=O)N[C@H]1CC[C@@H](CC(=O)O)OB1O)c1csc(N)n1 [Compound 40, 2-((3R,6S)-3-((Z)-2-(2-aminothiazol-4-yl)-2-(methoxyimino)acetamido)-2-hydroxy-1,2-oxaborinan-6-yl)acetic acid] | < 1400 | < 1400 | 1400 to 5620 | > 5620 | 1400 to 5620 | < 1400 | 1400 to 5620 | 1400 to 5620 | 
NC1(CC(=O)N[C@H]2CC[C@@H](CC(=O)O)OB2O)CCCCC1 [Compound 51, 2-((3R,6S)-3-(2-(1-aminocyclohexyl)acetamido)-2-hydroxy-1,2-oxaborinan-6-yl)acetic acid] | 1600 to 6410 | > 6410 | < 1600 | < 1600 | < 1600 | > 6410 | > 6410 | 1600 to 6410 | 
O=C(O)C[C@@H]1CC[C@H](NC(=O)Cn2ccnc2-c2ccccc2)B(O)O1 [Compound 54, 2-((3R,6S)-2-hydroxy-3-(2-(2-phenyl-1H-imidazol-1-yl)acetamido)-1,2-oxaborinan-6-yl)acetic acid] | 1400 to 5600 | > 5600 | < 1400 | < 1400 | < 1400 | < 1400 | > 5600 | 1400 to 5600 | 
Nc1nc(/C(=N/OCc2cc(=O)c(O)cn2O)C(=O)N[C@H]2CC[C@@H](CC(=O)O)OB2O)cs1 [Compound 62, 2-((3R)-3-((Z)-2-(2-aminothiazol-4-yl)-2-((1,5-dihydroxy-4-oxo-1,4-dihydropyridin-2-yl)methoxyimino)acetamido)-2-hydroxy-1,2-oxaborinan-6-yl)acetic acid] | > 4160 | 1040 to 4160 | 1040 to 4160 | < 1040 | < 1040 | 1040 to 4160 | > 4160 | > 4160 | 
O=C(O)CC1CCC[C@H](NC(=O)Cc2cccs2)B(O)O1 (stereo partly drawn) [Compound 63, 2-((3R)-2-hydroxy-3-(2-(thiophen-2-yl)acetamido)-1,2-oxaborepan-7-yl)acetic acid] | 1610 to 6430 | 1610 to 6430 | 1610 to 6430 | 1610 to 6430 | 1610 to 6430 | 1610 to 6430 | > 6430 |  | MPC4 CTX-M-14 KP1005 [11]: Z (key: X: MPC@4 of less than 2 μg/mL; Y: MPC@4 of 2 μg/mL to 10 μg/mL; Z: MPC@4 of greater than 10 μg/mL); MPC4 CTX-M-15 KP1009 [11]: Y (key: X: MPC@4 of less than 2 μg/mL; Y: MPC@4 of 2 μg/mL to 10 μg/mL; Z: MPC@4 of greater than 10 μg/mL); MPC4 SHV-5 ec308 [11]: Z (key: X: MPC@4 of less than 2 μg/mL; Y: MPC@4 of 2 μg/mL to 10 μg/mL; Z: MPC@4 of greater than 10 μg/mL); MPC4 SHV-12 KP1010 [11]: Y (key: X: MPC@4 of less than 2 μg/mL; Y: MPC@4 of 2 μg/mL to 10 μg/mL; Z: MPC@4 of greater than 10 μg/mL); MPC4 SHV-18 KP1012 [11]: Y (key: X: MPC@4 of less than 2 μg/mL; Y: MPC@4 of 2 μg/mL to 10 μg/mL; Z: MPC@4 of greater than 10 μg/mL); MPC4 TEM-10 EC1009 [11]: Z (key: X: MPC@4 of less than 2 μg/mL; Y: MPC@4 of 2 μg/mL to 10 μg/mL; Z: MPC@4 of greater than 10 μg/mL); MPC4 TEM-10 ec302 [11]: Z (key: X: MPC@4 of less than 2 μg/mL; Y: MPC@4 of 2 μg/mL to 10 μg/mL; Z: MPC@4 of greater than 10 μg/mL); MPC4 TEM-26 ec304 [11]: Z (key: X: MPC@4 of less than 2 μg/mL; Y: MPC@4 of 2 μg/mL to 10 μg/mL; Z: MPC@4 of greater than 10 μg/mL)
C[C@]1(Cn2ccnn2)[C@H](C(=O)O)N2C(=O)C[C@H]2S1(=O)=O [Tazobactam, reference compound] |  |  |  |  | 2460 |  | 14800 |  | IC50 (OXA-10, lysate of KP1007): 333 to 3330 nM; IC50 (SHV-2, lysate of ec306): 333 to 3330 nM; IC50 (SME-2, lysate of SM1000): 333 to 3330 nM; MPC4 CTX-M-14 KP1005 [11]: 10 µg/mL; MPC4 CTX-M-15 KP1009 [11]: 10 µg/mL; MPC4 SHV-5 ec308 [11]: 5 µg/mL; MPC4 SHV-12 KP1010 [11]: 1.25 µg/mL; MPC4 SHV-18 KP1012 [11]: 1.25 µg/mL; MPC4 TEM-10 EC1009 [11]: 2.5 µg/mL; MPC4 TEM-10 ec302 [11]: 5 µg/mL; MPC4 TEM-26 ec304 [11]: 1.25 µg/mL; IC50 ([6]; AZT IC50 KP1008 KPC-2): 7390 nM; IC50 ([6]; lysate KP1004 KPC-2, aztreonam cleavage, numeric values, read-out: AZT IC50 KP1004 KPC-2 (converted)): 2460 nM; IC50 [12]: < 333 nM; IC50 (GES-1, lysate of pa 1063): 333 to 3330 nM; IC50 (SHV-5, lysate of ec308): < 333 nM
